Experimental findings from patent publication US20240165164A1, “STEM CELLS FOR USE IN REDUCING THE IMMUNE RESPONSE FOLLOWING ORGAN TRANSPLANTATION” (Amniotics AB, priority 2021, published 2024) are described below.

Assay [1] deals with human Peripheral Blood Mononuclear Cells (PBMCs). Kind of assay: PBMC co-culture: cell composition after 24 hours of activation (FACS analysis). The procedure: (§1) Freshly isolated human PBMCs, pooled from three donors, were activated with anti-CD3/anti-CD28 at 10 μg/ml and 5 μg/ml respectively in presence of MSCs ex vivo for 24 or 72 hours. Following activation, cells were analysed for effects on cellular composition after 24 hours and for effects on cellular composition and cell proliferation using CFSE after 72 hours. In addition, supernatants collected after 24 hours of activation were analysed for cytokine levels using Luminex.
(§2) Peripheral Blood Mononuclear Cells (PBMCs) were isolated from leucocyte concentrate from three different donors (acquired from Blodcentralen, Lunds Universitetssjukhus, Lund, Sweden) through gradient centrifugation at 400×g for 40 minutes using Ficoll. Red blood cells (RBCs) were lysed using BD Pharmlyse buffer 10× diluted in milliQ water for 3 minutes at room temperature (RT). Cells were washed and the isolated PBMCs were pooled. Cell concentration was determined using a Scepter cell counter (Millipore Merck, MA. USA). Cells were diluted to 1×10^7 cells/ml in PBS. Pooled PBMCs were split into 2 different tubes. Cells in tube 1 was stained with CFSE at 5 µM for 5 minutes (dark, RT). CFSE stained cells were washed with an equal volume of FBS to stop the reaction and washed again with PBS. Cells in tube two was left in PBS.
(§3) MSCs (donor 1, donor 2, donor 3, and AD-MSC control cells) were provided in 8 different tubes, two for each cell type (in different medias (M3 and M4). All cells (PBMCs and MSCs) were diluted in the two different cell culture media (M3 and M4) to a final concentration of 2*10^6 cells/ml. Media was supplemented with anti-CD28 at 5 μg/ml. Cells were added to anti-CD3 (1 μg/well, 100 μl/well) coated U bottom cell culture plates according to the layout below, 200 μl/well in different PBMC:MSC ratios (1:10, 1:5, 1:2.5, 1:0 and 0:1) with a total amount of cells at 4*10^5 cells/well.
(§4) When plating controls, cells were spun down and diluted in M3 or M4 at 4*10^6 cells/ml, with a total amount of cells at 4*10^5 cells/well. 100 μl PBMCs were added per well. […] Medium was added to unstimulated control wells (700 μl/well). Cells were incubated for 24 or 72 hours at 37° C., 5% CO2. See also FIG. 28.
Following 24 hours of incubation, cells in FACS/Luminex plates were stained with antibodies detecting CD73, CD4, CD8, CD80, CD206, CD163 and PD-1 in staining buffer (PBS supplemented with 1% BSA). Briefly, cells were transferred to V bottom plates and centrifuged at 360×g for 2 min. Supernatant was transferred to a storage plate and put in −20° C. until analysis using Luminex. Cells were washed in PBS, centrifuged at 360×g for 2 min at 4° C. Supernatant was flicked off and antibodies against surface markers were added. Cells were incubated at +4° C. for 20 minutes (dark). After incubation, cells were washed 1× in PBS, centrifuged at 360×g for 2 min at 4° C. Cells were resuspended in PBS and acquired using the Attune Nxt flow cytometer. Compensation was performed using beads—AbC Total Compensation capture beads and negative beads. Since compensation was done using beads, FSC and SSC were changed before analysing samples and adjusted to cells. Lasers were not changed after compensation. 150 μl was analysed from each sample.
Background: In flow cytometry, cells or beads pass a laser one at a time.

Assay [2] has the same test system. As to the kind of experiment: PBMC co-culture: proliferation and cell composition after 72 hours of activation (FACS analysis after CFSE labeling). How it is done:
as §1, §2, §3, §4
After 72 hours of incubation, CFSE stained cells were stained with CD4, CD8, CD80, CD206 and CD163 in staining buffer. Briefly, cells were transferred to V bottom plates, centrifuged at 360×g for 2 min. Cells were washed in PBS, centrifuged at 360×g for 2 min at 4° C. Supernatant was flicked off and surface markers were added. Cells were incubated at +4° C. for 20 minutes. After incubation, cells were washed 1× in PBS, centrifuged at 360×g for 2 min at 4° C. Cells were resuspended in PBS and acquired using the Attune Nxt flow cytometer. Compensation was performed using beads—AbC Total Compensation capture beads and negative beads for surface markers. For CFSE compensation, newly CFSE stained cells were used. Since compensation was done using both beads and cells, FSC and SSC were changed and adjusted to beads or cells. Lasers were not changed after compensation.
Graphs were performed using Prism 8 for Mac OS X (GraphPad Software, San Diego, CA, USA). Results are presented as mean values±SEM, if not otherwise stated. Dot plots were acquired from analysis using FlowJo v10.6.1 for Mac (BD, New Jersey, USA). The inhibitory effect of MSCs on PBMC proliferation was calculated according to the two formulas below: […]

For assay [3] the test system is unchanged. As to the kind of experiment: PBMC co-culture: cytokine analysis after 24 hours of activation (Luminex). The format is cell-based. How it is done:
100 μl PBMCs were added per well. […] See also FIG. 28.
Supernatant (24 hours incubation) was analysed for cytokines using the 12-plex LXSAHM-12 Luminex kit. All reagents, standard and samples were prepared at room temperature and according to manufacturer's instruction. Briefly, 50 μl of standard or sample was added to wells. Microparticles were added to samples and standard and samples were incubated for 2 hours at room temperature on a horizontal orbital shaker (800 rpm). Plate was washed 3× in washing buffer using a magnetic plate. Biotin-antibody was added and incubated dark for 1 hour at room temperature on a horizontal orbital shaker (800 rpm). Plate was washed 3× in washing buffer using a magnetic plate. Streptavidin-PE was added to each well and incubated dark at room temperature on a horizontal orbital shaker (800 rpm) for 30 minutes. Plate was washed 3× in washing buffer using a magnetic plate. Microparticles were resuspended in 100 μl washing buffer, incubated for 2 minutes on a horizontal orbital shaker (800 rpm). Samples were analysed on a Bio-Rad Luminex analyzer.

[4] abbreviates: CsA 10 μg/ml, Prednisolone 125 nM.
The mark [5] stands for this setting: stimulated PBMCs, media 3, MSCs at all ratios, CsA 10 μg/ml, Prednisolone 125 nM.

`C[C@]12C=CC(=O)C=C1CC[C@@H]1[C@@H]2[C@@H](O)C[C@@]2(C)[C@H]1CC[C@]2(O)C(=O)CO` [Prednisolone]: in assay [1] (setting [4]), the M2 macrophage expression entry is given as “no effect”, the T cell activation entry was “only slightly inhibits” and the “expression level of M1 macrophages” value is reported as “no effect”. Moreover, in assay [1] (Prednisolone 125 nM), the macrophage cell composition entry is recorded as “did not have an effect”. In assay [1] (aCD3/aCD28 activated PBMCs, media 3, unsorted MSCs at PBMC:MSC 1:2.5, 1:5, 1:10, Prednisolone 125 nM, vs control), the “T helper cells (% CD4+ lymphocytes or MFI of CD4+ lymphocytes)” value is recorded as “higher levels”. Also, in assay [2] (72 hours), the M1 expression levels entry is “no effect”, the “M1 proliferation (CFSE)” value is “No effect”, the M2 expression levels result was “no effect” and the “M2 proliferation (CFSE)” value is listed as “No effect”. Also, the “T helper cells (% CD4+ among T cells)” value in assay [2] (72 hours of incubation, unsorted MSCs co-culture, CsA 10 μg/ml, Prednisolone 125 nM) was “no effect”. The “the other analysed cytokines, levels in supernatant” value in assay [3] (12-plex cytokines not listed as inhibited) is reported as “No inhibitory effect”. For the same compound, the “IL-6 levels in supernatant” value in assay [3] (setting [4]) is recorded as “inhibits”. In addition, in assay [3] (setting [5]), the “IL12/IL23p40 levels in supernatant” value is “inhibits” and the “TNF-α levels in supernatant” value is on record as “inhibits”. Moreover, the “HGF levels in supernatant” value in assay [3] (stimulated PBMCs, media 3, PBMC:MSC 1:2.5, 1:5, 1:10, CsA 10 μg/ml, Prednisolone 125 nM) is listed as “inhibits”.
